Data on one sequence can be found in patent publication US20250032590A1, “PARATHYROID HORMONE COMPOUNDS IN THE TREATMENT OF HYPOPARATHYROIDISM” (AMOLYT PHARMA, priority 2023, published 2025).

The test system of one series is PTX mice. The experiment in a line: Serum calcium after single dosing in HP PTX mouse model (Example 1). It counts as in vivo. To be noted: compared with PTH (1-34). The source says:
In FIG. 1, the black line indicates the impact of PTX in mice, resulting in serum calcium levels well below normal levels.

Series [1] concerns TPTX rats. In words: Serum calcium and phosphate, 28-day daily sc dosing in HP TPTX rat model (Example 2). It counts as in vivo. To be noted: 7.7 μg/kg/day. How it is done:
Thyroid-parathyroidectomized, or TPTX, rats were treated with daily subcutaneous injection of AZP-3601 at doses ranging from 3.8 μg/kg/day to 30.7 μg/kg/day. Treatment was continued for 28 days. […] The increase in calcium accumulated over time (over the first 15 to 21 days), but became more constant thereafter, indicating the development of a steady-state effect (FIG. 2). Due to the cumulative effect, lower doses of AZP-3601 were required to eventually increase blood calcium levels into the normal range as compared to the dose required with a single injection.

The test system of series [2] is TPTX rats. In words: Urinary calcium, repeated daily sc dosing in HP TPTX rat model (Example 4). It is filed as in vivo. The following applies: 30.7 μg/kg/day. The procedure:
To examine the effect of repeated dosing with AZP-3601 on urinary calcium levels, TPTX rats were treated with daily subcutaneous injection of AZP-3601 with doses ranging from 3.8 to 30.7 μg/kg/day. As additional controls, separate groups of TPTX rats received daily injections of either natural PTH (1-84) or the vehicle, and a group of normal (with intact thyroid and parathyroid glands, or sham) rats were injected with vehicle. […] The observed increase in urinary calcium excretion with the high dose was a normal kidney response to clear excess blood calcium (FIG. 4).

The nature of series [3]: Plasma detectability after single injection in cynomolgus monkeys. It counts as in vivo, cynomolgus monkey. How it is done:
To further examine how the potent and sustained biological activity induced by AZP-3601 could translate into potential clinical benefit for […] patients, its activity was examined in normal cynomolgus monkeys, a species much closer to humans and the most relevant for first in human dose-selection. Single injections of AZP-3601 were administered to normal cynomolgus monkeys. […] The dissociation between pharmacokinetic profile and pharmacodynamic effect is due to the short circulating half-life of AZP-3601 as opposed to the prolonged signaling caused by AZP-3601's potent interaction with the R^0 conformation of the PTH1 receptor.

The test system of series [4] is Cynomolgus monkeys. The experiment in a line: 13-week daily sc study in non-human primates: ex-vivo BMD (DXA), bone histopathology (Example 8). The following applies: Cynomolgus monkeys, 1, 2.5 or 10 μg/kg daily sc, 13 weeks. Also on record: species or system cynomolgus monkey. The procedure:
(§1) To further examine the effect of chronic AZP-3601 treatment on bone, both 13-week and 39-week studies were conducted in non-human primates (NHP), which are considered a relevant species with regard to AZP-3601 effects on serum calcium. Groups of 3 or 4 Cynomolgus monkeys of each sex were given daily subcutaneous injections of either vehicle or AZP-3601 at doses of 1, 2.5 or 10 μg/kg for either 13 or 39 weeks, as outlined in Table 2.
• Ex-vivo bone mineral density (BMD) by dual-energy X-ray absorptiometry (DXA) at week 13; • Histopathological examination of bone at week 13.
(§2) At the end of the 13-week study, right femur, right tibia and the L4 lumbar vertebra were collected from 3 animals/group/sex and bone mineral density (BMD) was measured by dual-energy X-ray absorptiometry. The left femur was submitted to histopathological examination. […] In the 39-week study, blood samples were collected from 4 animals/group/sex prior to and during weeks 4, 8, 13, 26 and 39 of treatment for measurement of bone biomarkers. In-life BMD of left femur, left tibia and L4 lumbar vertebra was measured by quantitative computed tomography (qCT) prior to and during weeks 26 and 39 of treatment (FIGS. 9A, 9B, 9C, 9D, 9E and 9F). At the end of the treatment period, femurs were processed for histopathological examination.

Series [5] has as its system Cynomolgus monkeys. The experiment in a line: 39-week daily sc study in non-human primates: bone biomarkers, BMD (qCT), histopathology (Example 8). It is filed as in vivo, cynomolgus monkey. How it is done:
as §1
• Serum bone biomarkers at baseline and weeks 4, 8, 13, 26 and 39; • In-life BMD by quantitative computed tomography (qCT) at baseline and weeks 26 and 39; • Histopathological examination of bone at week 39.
as §2
Prior to treatment, BMD was homogeneous among all groups for all the three bone sites examined.

In series [6] the test system is subjects with hypoparathyroidism (HP). The experiment in a line: Open-label multiple ascending dose study plus 2-month extension in subjects with hypoparathyroidism (Examples 10, 11). It is filed as in vivo, human. The source says:
Part C: Part C of the assessment was an open-label multiple ascending dose (MAD) study in male or female subjects with hypoparathyroidism (HP) who are on standard or care treatment (treatment with oral calcium and active vitamin D) to evaluate the safety and tolerability, PK, and PD of AZP-3601. Up to 2 cohorts of approximately 12 patients each were planned for this part of the study. Prior to the treatment period, there was an optimization period of up to 8 weeks during which doses of oral calcium and active vitamin D were adjusted to achieve a baseline target range of albumin-corrected serum calcium (7.8 to 9.0 mg/dL, ie, 1.95 to 2.25 mmol/L) and therefore ensuring a close baseline for all patients. During this optimization period, any serum 25-hydroxy vitamin D (native vitamin D) and/or magnesium deficiencies were corrected. During the treatment period, patients in Part C received AZP-3601 for 28 days as daily sc abdominal injections (with rotation of injection sites every dosing day). Doses of oral calcium and active vitamin D supplements were reduced during the initial 14 days of treatment while maintaining albumin-corrected serum calcium in the target range (7.8 to 9.0 mg/dL, ie, 1.95 to 2.25 mmol/L). Reductions of both oral calcium and active vitamin D supplements were performed using a staged approach until the active vitamin D dose were eliminated and the oral calcium dose were reduced to or below 500 mg/day. Based on animal data, serum calcium was expected to increase progressively following repeated administration of AZP-3601 and PD steady state was expected to be observed within the first 5 days of dosing. Staggered reductions of doses of oral calcium and active vitamin D supplements were therefore performed at near-steady state based on the predose albumin-corrected serum calcium value. The following treatments are administered in Part C in an open-label fashion: • Cohort C1: multiple sc doses of 20 mg AZP-3601 (n=12) qd from Day 1 to Day 28 (dose increase of AZP-3601 to 40 mg was allowed from Day 14 onwards) • Cohort C2: multiple sc doses of a fixed dose of 10 mg AZP-3601 (n=12) qd from Day 1 to Day 28 (dose of AZP-3601 may be increased at a fixed dose of 20 mg from Day 14 onwards)
During the extension phase, patients had their AZP-3601 dose increased in increments of 10 mg to a maximum dose of 60 mg (Cohort 1) and of 80 mg (Cohort 2).
The extension phase started immediately following Day 28 visit of the Main treatment period. Patients received AZP-3601 for 56 days (2 months) as daily sc injections from Day 29 onwards (with rotation of injection sites each day of administration). The goal was to optimize AZP-3601 dosing across a dose range while doses of oral calcium and active vitamin D were as low as safely possible and albumin-corrected serum calcium was maintained within the target range of 7.8 to 9.0 mg/dL (1.95 to 2.25 mmol/L). For patients who were taking minimal or no supplemental calcium (≤500 mg/day) and no vitamin D on Day 28, the AZP-3601 dose from the previous 14 days of treatment (Part C, Main Treatment Period) was maintained and adjusted when needed during the Extension Phase. For patients who were still taking active vitamin D and/or more than 500 mg/day of oral calcium on Day 28, a progressive reduction of supplements was carried out while increasing the dose of AZP-3601. […]

The test system of another series is non-human primates. The following applies: 10.7 μg/kg or 42.7 μg/kg; cited from earlier work.
The mark [7] stands for this setting: Cynomolgus monkeys, 1, 2.5 or 10 μg/kg daily sc, weeks 4 to 39.
[8] abbreviates: HP subjects of both cohorts, 84 days.
[9] abbreviates: HP subjects, various bone sites, including patients with osteopenia.

Entries after “also recorded” stand apart in the source; their conditions may differ. No end group written: not given here.

For “AVAEIQLMHQRAKWIQDARRRAFLHKLIAEIHTAEI [AZP-3601, M-PTH(1-14)/PTHrP(15-36)]”, in the series with PTX mice, the half-life result is “equally short half-life as PTH (1-34)”. Besides, in the series on TPTX rats [1], the “change in bone at the optimal dose” value is listed as “without producing any significant change in bone”. The “serum calcium at the highest dose” value in the series with TPTX rats [2] is “induced overt hypercalcemia”. The “detectability in plasma post-dosing” value in series [3] was “detectable in plasma for only up to one hour post-dosing”. In the series with Cynomolgus monkeys [4], the “BMD of femur, tibia and L4 lumbar vertebra by DXA” value is on record as “no evidence of any treatment-related effect”; the “histopathological examination of femur” value is given as “no evidence of any treatment-related effect”. Also, in the series on Cynomolgus monkeys [5] (setting [7]), the “anabolic bone biomarker P1NP” value is reported as “no treatment-related changes; also recorded: no significant effect on either anabolic or catabolic bone biomarkers” and the “catabolic bone biomarker CTx” value is reported as “no treatment-related changes; also recorded: no significant effect on either anabolic or catabolic bone biomarkers”. Besides, in the series with Cynomolgus monkeys [5] (Cynomolgus monkeys, 39-week study, versus pre-treatment values), the “in-life BMD of femur, tibia and L4 lumbar vertebra by qCT” value is “no statistically significant changes in BMD”. For the same sequence, the “histological examination of the femur” value in the series with Cynomolgus monkeys [5] (Cynomolgus monkeys, week 39) is listed as “no noteworthy findings”. Moreover, in series [6] (setting [8]), the “bone mineral density (BMD)” value is reported as “remains stable” and the “trabecular bone score (TBS)” value is “remains stable”. Besides, in series [6] (HP subjects, 84 days), the “mean bone markers relative to upper limit of normal” value is “never increased either mean bone marker above the upper limit of normal level”. Also, in series [6] (setting [9]), the T-score result is “remain stable” and the Z-score result was “remain stable”. The “serum calcium at highest dose levels” value with non-human primates is “induced significant hypercalcemia”.
